# In ChEMBL document CHEMBL1201862, “PubChem BioAssay data set” (2004):
# The source made the active and inactive calls.
# Tests used:
# [1] = biological target: Induced myeloid leukemia cell differentiation protein Mcl-1 (Homo sapiens, UniProt Q07820); type: functional
# [2] = biological target: T1, High affinity choline transporter 1 (Homo sapiens, UniProt Q9GZV3); test: CHT inhibitors, dose response, cell-based, 5-point CRC, membrane potential dye (AID 504840); type: functional
# T1 sequence (Q9GZV3 whole entry): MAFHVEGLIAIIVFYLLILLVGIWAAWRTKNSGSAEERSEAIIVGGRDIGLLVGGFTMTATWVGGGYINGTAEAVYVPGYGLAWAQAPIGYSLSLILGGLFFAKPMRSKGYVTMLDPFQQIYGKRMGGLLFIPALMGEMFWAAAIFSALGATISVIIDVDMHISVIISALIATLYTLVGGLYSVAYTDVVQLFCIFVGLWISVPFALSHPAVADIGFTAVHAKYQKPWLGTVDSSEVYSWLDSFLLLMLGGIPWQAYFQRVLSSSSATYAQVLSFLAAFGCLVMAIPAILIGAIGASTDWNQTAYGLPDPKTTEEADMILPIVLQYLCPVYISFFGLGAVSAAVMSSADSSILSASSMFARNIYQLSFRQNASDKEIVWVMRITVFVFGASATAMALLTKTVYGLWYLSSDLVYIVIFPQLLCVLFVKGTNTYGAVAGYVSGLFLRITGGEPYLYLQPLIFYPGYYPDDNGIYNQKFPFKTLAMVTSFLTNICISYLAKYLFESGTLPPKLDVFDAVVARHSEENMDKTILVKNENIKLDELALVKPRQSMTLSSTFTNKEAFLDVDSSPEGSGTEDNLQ
# [3] = THP-1 cell cytotoxicity, dose response, cytotoxicity control for non-replicating M. tuberculosis project (AID 489025); type: functional
# [4] = Vero E6 cell cytotoxicity, dose response, cytotoxicity control for non-replicating M. tuberculosis project, secondary assay (AID 492998); type: functional, VeroE6; settings: Vero C1008
# cells = type: functional
# INS1 = test: beta cell apoptosis inhibitors, cytokine rescue, dose response, luminescence, retest (AID 449756); type: functional, cell-based; settings: Rattus norvegicus;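 further: cell death triggered by IL-1 beta plus TNF-alpha plus IFN-gamma mixture; protective hits raise ATP signal compared with cytokine alone wells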
# [5] = biological target: T2, Carboxy-terminal domain RNA polymerase II polypeptide A small phosphatase 1 (Homo sapiens, UniProt Q9GZU7); test: inhibitors of CTDSP1, concentration-response testing, biochemical assay, absorbance-based, actives from ultra-high-throughput screening (AID 540297); type: functional
# T2 sequence (Q9GZU7 whole entry): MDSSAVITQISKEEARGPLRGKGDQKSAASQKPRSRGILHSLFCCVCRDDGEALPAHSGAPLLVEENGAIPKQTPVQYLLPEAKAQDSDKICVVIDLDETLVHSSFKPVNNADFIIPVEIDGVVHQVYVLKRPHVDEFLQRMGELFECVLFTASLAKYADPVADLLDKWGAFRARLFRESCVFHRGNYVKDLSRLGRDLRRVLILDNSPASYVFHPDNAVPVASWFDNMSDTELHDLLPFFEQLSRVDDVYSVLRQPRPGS
# [6] = biological target: T3, Low molecular weight phosphotyrosine protein phosphatase (Homo sapiens, UniProt P24666); type: functional; settings: read-out: IC50_Mean;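 further: Dose-response confirmation assay measuring inhibition of LMPTP enzyme activity by fluorescence intensity read-out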
# T3 sequence (P24666 whole entry): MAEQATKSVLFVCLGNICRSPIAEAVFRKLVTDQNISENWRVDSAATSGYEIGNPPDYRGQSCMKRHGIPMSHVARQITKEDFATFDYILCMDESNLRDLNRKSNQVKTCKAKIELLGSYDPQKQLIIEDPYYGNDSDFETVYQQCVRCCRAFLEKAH
# [7] = biological target: T4, Polyadenylate-binding protein 1 (Homo sapiens, UniProt P11940); test: PABP1 MLLE–PAM2 interaction inhibitors, dose response, miRNA deadenylation inhibitor project, biochemical, fluorescence polarization, Cy5-PAM2 peptide, secondary (AID 602260); type: functional; settings: read-out: IC50_Mean
# [8] = biological target: T4, Polyadenylate-binding protein 1; test: PABP1 MLLE–PAM2 binding inhibitor potency, dose response, biochemical, fluorescence polarization, FITC-PAM2 peptide (AID 602259); type: functional; settings: read-out: IC50_Mean
# [9] = biological target: T5, DNA repair and recombination protein RAD54-like (Homo sapiens, UniProt Q92698); test: inhibitors of human RAD54 branch migration, confirmation, biochemical, fluorescence, cherry-picked samples, dose series (AID 651657); type: functional
# T5 sequence (Q92698 whole entry): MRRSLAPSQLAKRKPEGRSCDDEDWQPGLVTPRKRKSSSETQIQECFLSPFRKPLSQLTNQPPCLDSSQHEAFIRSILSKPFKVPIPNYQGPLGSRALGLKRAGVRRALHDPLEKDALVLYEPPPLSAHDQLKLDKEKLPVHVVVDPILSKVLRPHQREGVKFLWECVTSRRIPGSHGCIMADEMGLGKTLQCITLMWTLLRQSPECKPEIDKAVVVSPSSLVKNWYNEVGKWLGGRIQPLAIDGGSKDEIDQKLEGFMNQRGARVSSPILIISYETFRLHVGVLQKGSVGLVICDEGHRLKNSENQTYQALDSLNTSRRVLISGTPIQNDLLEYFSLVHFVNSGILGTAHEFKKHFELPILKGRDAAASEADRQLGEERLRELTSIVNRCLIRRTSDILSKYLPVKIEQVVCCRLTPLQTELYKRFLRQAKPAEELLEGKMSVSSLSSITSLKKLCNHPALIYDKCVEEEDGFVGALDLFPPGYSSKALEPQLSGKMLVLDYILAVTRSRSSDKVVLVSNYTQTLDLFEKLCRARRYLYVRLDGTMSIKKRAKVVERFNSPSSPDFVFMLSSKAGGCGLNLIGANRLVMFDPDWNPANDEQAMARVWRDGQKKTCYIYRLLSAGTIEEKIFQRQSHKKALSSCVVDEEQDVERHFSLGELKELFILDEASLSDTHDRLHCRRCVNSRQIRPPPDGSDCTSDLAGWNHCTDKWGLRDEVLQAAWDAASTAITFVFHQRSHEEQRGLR
# [10] = biological target: Voltage-dependent T-type calcium channel subunit alpha-1H (Homo sapiens, UniProt O95180); type: functional;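 further: channel activity triggered by adding a high calcium stimulation buffer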
# [11] = test system: Streptococcus sp. 'group A'; test: growth inhibition of control SK(-) GAS strain, dose response, counter-screen for streptokinase expression inhibitor project, luminescence, kanamycin, BacTiterGlo, confirmation (AID 1900); type: functional, organism-based
# Streptokinase A = biological target: T6, Streptokinase A (Streptococcus pyogenes serotype M1, UniProt P10520); test: S. pyogenes streptokinase expression inhibitors, potency, dose response, plasminogen activation absorbance, OD405 (AID 1914); type: functional, Streptococcus pyogenes M1 GAS;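 further: secreted streptokinase activity via plasminogen activation per viability signal from cell pellet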
# T6 sequence (P10520 whole entry): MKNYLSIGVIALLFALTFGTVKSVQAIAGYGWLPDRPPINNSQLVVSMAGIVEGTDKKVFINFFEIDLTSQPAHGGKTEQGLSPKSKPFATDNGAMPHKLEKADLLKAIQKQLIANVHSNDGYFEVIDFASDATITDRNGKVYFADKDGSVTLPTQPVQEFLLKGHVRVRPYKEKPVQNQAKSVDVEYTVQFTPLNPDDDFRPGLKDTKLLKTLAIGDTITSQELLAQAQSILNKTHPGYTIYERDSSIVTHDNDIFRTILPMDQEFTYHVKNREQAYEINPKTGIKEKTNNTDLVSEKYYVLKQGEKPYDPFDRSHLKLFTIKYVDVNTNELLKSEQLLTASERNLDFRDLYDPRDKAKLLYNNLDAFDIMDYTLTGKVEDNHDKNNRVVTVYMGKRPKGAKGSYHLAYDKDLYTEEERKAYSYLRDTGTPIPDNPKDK
# Streptococcus = test: Group A Streptococcus viability loss, dose response, counter-screen for streptokinase expression inhibitor project, luminescence, BacTiterGlo (AID 1915); type: functional, organism-based;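 further: potency for reduction of bacterial viability or growth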
# H9c2 = test: cells; type: functional, cell-based; settings: Rattus norvegicus, H9c2, Myocardium;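 further: confirmatory concentration-response retest of ultra-high-throughput screening hits for modulation of myocardial damage; cell death induced by hydrogen peroxide oxidative stress; compound pretreatment for 60 min then peroxide exposure for 2 h; potency is for protecting the cells against peroxide damage rather than for killing them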
# [12] = inhibitors of intracellular T. cruzi replication, confirmation, NIH3T3 host cells, beta-gal luminescence (AID 2044); type: functional, cell-based;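 further: intracellular parasites grown in NIH/3T3 mouse fibroblasts as host cells; luminescent beta-galactosidase reporter signal from transgenic T. cruzi replicating inside host cells; inhibitors lower the luminescence signal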
# [13] = cytotoxicity toward NIH3T3 fibroblasts, dose response, counter-screen, cell-based, ATP luminescence, mouse fibroblasts (AID 2010); type: functional;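 further: cells exposed to compound for about 90 hours before reading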
# [14] = biological target: T7, Short transient receptor potential channel 4 (Mus musculus, UniProt Q9QUQ5); test: mouse TRPC4 channel inhibitors, dose response, cell-based, HEK293 TRPC4/mu-opioid, Fluo-4 calcium (AID 434942); type: functional;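 further: potency of inhibitors blocking the TRPC4 calcium response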
# T7 sequence (Q9QUQ5 whole entry): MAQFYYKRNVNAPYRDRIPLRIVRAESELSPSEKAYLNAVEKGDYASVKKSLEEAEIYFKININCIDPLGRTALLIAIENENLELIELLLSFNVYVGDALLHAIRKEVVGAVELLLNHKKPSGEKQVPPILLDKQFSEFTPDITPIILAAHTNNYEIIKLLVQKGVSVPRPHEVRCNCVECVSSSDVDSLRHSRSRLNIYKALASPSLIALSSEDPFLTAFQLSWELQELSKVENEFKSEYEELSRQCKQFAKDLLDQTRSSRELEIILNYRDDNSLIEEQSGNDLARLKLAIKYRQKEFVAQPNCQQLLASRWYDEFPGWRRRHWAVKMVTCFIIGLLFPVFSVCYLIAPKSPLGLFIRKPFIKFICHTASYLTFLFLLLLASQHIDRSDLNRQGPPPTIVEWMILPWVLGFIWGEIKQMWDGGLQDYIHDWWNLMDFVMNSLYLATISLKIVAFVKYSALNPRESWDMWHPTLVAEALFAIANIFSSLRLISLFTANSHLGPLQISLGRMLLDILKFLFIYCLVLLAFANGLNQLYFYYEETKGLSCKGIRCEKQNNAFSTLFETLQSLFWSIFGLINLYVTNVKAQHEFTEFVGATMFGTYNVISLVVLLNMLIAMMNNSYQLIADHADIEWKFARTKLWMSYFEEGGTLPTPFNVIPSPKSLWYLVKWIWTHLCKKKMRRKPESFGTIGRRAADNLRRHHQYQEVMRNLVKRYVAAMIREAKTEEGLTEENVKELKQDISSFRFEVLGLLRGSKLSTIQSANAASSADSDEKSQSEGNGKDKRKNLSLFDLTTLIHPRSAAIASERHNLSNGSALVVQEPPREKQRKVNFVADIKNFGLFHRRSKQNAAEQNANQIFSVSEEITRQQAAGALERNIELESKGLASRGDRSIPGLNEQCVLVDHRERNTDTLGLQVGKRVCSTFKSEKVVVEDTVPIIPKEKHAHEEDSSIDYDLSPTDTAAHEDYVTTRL
# T4 sequence (P11940 whole entry): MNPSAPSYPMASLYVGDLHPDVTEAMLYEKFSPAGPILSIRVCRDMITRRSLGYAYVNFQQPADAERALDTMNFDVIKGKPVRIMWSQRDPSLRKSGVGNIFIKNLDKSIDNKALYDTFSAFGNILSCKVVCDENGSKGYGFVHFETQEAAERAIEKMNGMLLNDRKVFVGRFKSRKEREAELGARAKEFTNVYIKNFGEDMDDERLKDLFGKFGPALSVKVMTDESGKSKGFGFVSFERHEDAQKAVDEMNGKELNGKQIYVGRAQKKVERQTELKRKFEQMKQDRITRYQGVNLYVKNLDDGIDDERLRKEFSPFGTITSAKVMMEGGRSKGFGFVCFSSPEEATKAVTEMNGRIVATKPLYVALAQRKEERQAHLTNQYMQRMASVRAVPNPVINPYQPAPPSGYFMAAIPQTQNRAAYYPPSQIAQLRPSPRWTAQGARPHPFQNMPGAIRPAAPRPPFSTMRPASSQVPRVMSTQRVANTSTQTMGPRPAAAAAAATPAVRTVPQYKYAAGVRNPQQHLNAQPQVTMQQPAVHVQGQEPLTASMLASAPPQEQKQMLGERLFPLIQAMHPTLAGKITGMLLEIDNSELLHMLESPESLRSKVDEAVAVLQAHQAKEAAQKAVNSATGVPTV
# Chain of Voltage-dependent T-type calcium channel subunit alpha-1H (O95180 whole entry): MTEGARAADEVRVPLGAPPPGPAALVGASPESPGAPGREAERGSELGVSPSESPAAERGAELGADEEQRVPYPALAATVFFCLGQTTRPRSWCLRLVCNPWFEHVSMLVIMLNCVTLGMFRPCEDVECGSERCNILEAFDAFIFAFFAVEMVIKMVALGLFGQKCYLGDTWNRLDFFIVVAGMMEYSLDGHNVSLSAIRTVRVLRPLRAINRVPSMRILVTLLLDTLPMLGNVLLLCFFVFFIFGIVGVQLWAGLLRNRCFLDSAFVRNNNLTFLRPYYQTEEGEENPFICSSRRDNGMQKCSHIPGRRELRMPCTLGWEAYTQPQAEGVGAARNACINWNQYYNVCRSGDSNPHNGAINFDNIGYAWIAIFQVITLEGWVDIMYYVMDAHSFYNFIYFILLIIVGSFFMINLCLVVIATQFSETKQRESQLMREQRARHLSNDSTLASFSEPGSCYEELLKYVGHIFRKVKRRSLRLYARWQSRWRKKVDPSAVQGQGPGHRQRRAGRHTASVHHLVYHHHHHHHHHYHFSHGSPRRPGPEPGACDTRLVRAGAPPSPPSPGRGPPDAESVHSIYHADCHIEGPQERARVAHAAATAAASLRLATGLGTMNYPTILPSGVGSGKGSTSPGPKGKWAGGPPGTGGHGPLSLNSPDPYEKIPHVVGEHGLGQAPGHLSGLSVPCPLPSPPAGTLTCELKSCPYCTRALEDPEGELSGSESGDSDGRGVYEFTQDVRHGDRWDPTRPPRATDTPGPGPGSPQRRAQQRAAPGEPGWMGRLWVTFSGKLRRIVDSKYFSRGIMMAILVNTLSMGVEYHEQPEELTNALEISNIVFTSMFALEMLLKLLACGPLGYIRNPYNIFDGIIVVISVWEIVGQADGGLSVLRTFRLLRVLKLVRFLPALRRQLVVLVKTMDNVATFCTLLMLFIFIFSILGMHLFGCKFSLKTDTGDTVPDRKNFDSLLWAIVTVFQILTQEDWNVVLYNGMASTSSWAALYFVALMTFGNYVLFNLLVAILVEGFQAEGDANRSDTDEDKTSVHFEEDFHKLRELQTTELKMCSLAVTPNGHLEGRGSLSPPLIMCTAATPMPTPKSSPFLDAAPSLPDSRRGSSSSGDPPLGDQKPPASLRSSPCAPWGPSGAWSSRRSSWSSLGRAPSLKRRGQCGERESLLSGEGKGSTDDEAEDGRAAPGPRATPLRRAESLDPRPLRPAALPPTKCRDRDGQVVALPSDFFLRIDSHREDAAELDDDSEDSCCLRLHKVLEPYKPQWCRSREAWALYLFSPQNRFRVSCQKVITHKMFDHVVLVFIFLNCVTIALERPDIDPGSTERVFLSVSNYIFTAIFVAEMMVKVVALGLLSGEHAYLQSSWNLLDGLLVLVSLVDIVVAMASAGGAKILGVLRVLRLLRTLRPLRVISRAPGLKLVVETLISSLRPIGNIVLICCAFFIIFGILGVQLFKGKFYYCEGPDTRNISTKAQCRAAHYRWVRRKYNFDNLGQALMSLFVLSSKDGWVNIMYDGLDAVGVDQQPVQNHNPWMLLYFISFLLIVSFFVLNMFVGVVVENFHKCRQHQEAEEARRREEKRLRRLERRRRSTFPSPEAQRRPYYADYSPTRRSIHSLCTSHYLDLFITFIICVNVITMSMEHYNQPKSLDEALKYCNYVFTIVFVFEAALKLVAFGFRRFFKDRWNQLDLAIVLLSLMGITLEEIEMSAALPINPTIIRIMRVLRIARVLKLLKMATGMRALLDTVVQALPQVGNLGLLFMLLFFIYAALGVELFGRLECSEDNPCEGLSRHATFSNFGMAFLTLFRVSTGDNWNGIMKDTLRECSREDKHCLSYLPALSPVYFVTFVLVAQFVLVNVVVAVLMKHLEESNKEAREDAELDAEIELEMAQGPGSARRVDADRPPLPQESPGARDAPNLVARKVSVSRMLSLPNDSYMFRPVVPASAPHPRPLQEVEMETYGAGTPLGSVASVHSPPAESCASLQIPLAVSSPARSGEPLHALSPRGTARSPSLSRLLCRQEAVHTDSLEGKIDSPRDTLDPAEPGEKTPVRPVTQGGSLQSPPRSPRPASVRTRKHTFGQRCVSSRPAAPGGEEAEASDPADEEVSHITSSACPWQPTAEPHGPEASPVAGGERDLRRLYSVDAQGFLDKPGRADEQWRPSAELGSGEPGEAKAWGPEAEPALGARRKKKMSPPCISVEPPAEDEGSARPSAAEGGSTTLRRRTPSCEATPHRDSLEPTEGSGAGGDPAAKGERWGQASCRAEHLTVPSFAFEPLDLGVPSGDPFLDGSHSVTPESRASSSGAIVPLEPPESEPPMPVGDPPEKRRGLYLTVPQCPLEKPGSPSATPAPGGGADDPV
# Chain of Induced myeloid leukemia cell differentiation protein Mcl-1 (Q07820 whole entry): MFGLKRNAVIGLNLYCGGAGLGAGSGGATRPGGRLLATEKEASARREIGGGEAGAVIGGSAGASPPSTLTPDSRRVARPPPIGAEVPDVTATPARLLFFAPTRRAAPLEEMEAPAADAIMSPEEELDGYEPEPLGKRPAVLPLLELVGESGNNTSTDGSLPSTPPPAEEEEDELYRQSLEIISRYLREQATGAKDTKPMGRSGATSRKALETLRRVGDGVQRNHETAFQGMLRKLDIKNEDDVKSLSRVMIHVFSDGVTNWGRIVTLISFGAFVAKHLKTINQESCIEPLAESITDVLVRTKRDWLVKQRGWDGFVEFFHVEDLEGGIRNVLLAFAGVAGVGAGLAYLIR
compound,measurement,setting,value
O=C(O)CSc1cc(C(=O)c2cc(F)ccc2O)cn2c(=O)c3c(-c4ccccc4)csc3nc12,IC50,[1],2.79 µM (active)
same,IC50,[2],16.6 µM (active)
CCn1c(NC(=O)c2ccccc2)nc2ccccc21,CC50,[3],> 40 µM (active)
same,CC50,[4],19.6 µM (active)
same,IC50,cells,1.94 µM (active)
Cc1csc2nc(NC(=O)c3ccccc3)sc(=O)c12,AC50,INS1,> 260 µM (inactive)
same,IC50,[5],7.03 µM (active)
same,IC50,[6],29.8 µM (inactive)
CCCn1c2ccccc2c2cnn(CC(=O)NCCCN3CCCCC3CC)c(=O)c21 (configuration not stated),IC50,[2],13.6 µM (active)
O=C(CCN1CCOCC1)NNC(=S)NC(=O)c1ccccc1,IC50,[7],> 66 µM (inactive)
same,IC50,[8],> 66 µM (inactive)
COc1cccc(N2CCN(C(=O)C3CCCN(c4ncnc5c4nc4n5CCCCC4)C3)CC2)c1 (configuration not stated),IC50,[2],16.6 µM (active)
CCOc1cc2[nH]c(=O)n(Cc3ccc(C(=O)NCCCN4CCC(C)CC4)cc3)c(=O)c2cc1OCC,AC50,[9],55.9 µM (active)
CCCNC(=O)NCCc1c(C)[nH]c2ccccc12,IC50,[7],> 66 µM (inactive)
same,IC50,[8],45.9 µM (inactive)
Cc1[nH]c2ccccc2c1C(=O)CN1CCCC(C)C1 (configuration not stated),IC50,[2],15.8 µM (active)
Cc1cccc(NC(=O)COc2ccc(/C=C\c3nc(O)nc(O)c3[N+](=O)[O-])cc2)c1,IC50,[5],1.78 µM (active)
same,IC50,[6],80 µM (inactive)
O=C(N=Nc1c(O)[nH]c2ccc(F)cc12)c1ccc(NS(=O)(=O)c2cccs2)cc1,IC50,[6],80 µM (inactive)
O=C(OCc1nc2ccccc2s1)c1cccs1,EC50,[10],12.2 µM (active)
Cn1cc(C(=O)c2ccc(Cl)cc2Cl)cc1C(=O)NN=C(N)COc1cccc(C(F)(F)F)c1,EC50,[11],2.31 µM (active)
same,EC50,Streptokinase A,133 µM (active)
same,EC50,Streptococcus,> 150 µM (not active)
same,EC50,[10],2.61 µM (active)
Cc1cccn2c(=O)c3cc(C(=O)NCC4CCCO4)c(=N)n(C4CCCCC4)c3nc12 (configuration not stated),AC50,[9],56 µM (active)
N=c1n(CCN2CCCC2)c2ccccc2n1CC(O)c1ccco1 (configuration not stated),IC50,[7],> 66 µM (inactive)
same,IC50,[8],> 66 µM (inactive)
COc1ccccc1C(CNC(=O)c1cccc(NS(=O)(=O)c2ccc(C)c(F)c2)c1)N1CCCC1 (configuration not stated),IC50,[2],12.5 µM (active)
CCCc1nc2c(C)cc(Br)cn2c1Cc1ccsc1,IC50,[7],35.7 µM (inactive)
same,IC50,[8],41.9 µM (inactive)
COc1cccc(/C=N/NC(=O)c2ccncc2)c1OC(=O)c1ccc(Br)cc1,IC50,H9c2,12.8 µM (active)
same,IC50,[7],> 66 µM (inactive)
same,IC50,[8],25.1 µM (inactive)
COc1ccccc1Nc1nc(NCC2CCCO2)c2ccccc2n1 (configuration not stated),EC50,[12],0.194 µM (active)
same,EC50,[13],> 60 µM (not active)
same,EC50,[14],2.66 µM (active)
same,AC50,[9],81.9 µM (active)
